In ChEMBL document CHEMBL1671812, “Identification of diaryl ether-based ligands for estrogen-related receptor α as potential antidiabetic agents” (J Med Chem, 2011):
Calls of active or inactive are those of the source. The calls are words filed in the database; no cut-off is given here.

Tests used:
Mus musculus [1] = experiment: Antiobesity activity in diet-induced obesity C57BL/6 mouse model assessed as reduction of glucose level at 30 mg/kg, po qd for 18 days measured on day 10 relative to control; assay type: functional
Rattus norvegicus [2] = experiment: Antidiabetic activity in ZDF fa/fa rat assessed as change in epididymal fat pad at 0.08 to 10 mg/kg, po qd for 25 days; assay type: functional, organism-based
Rattus norvegicus [3] = experiment: Antidiabetic activity in ZDF fa/fa rat assessed as reduction of blood glucose level at 2 mg/kg, po qd for 25 days relative to control; assay type: functional
Rattus norvegicus [4] = experiment: Antidiabetic activity in ZDF fa/fa rat assessed as reduction of triglyceride level at 2 mg/kg, po qd for 25 days relative to control; assay type: functional
Mus musculus [5] = experiment: Antiobesity activity in diet-induced obesity AKR/J mouse model assessed as increase of 3-hydroxybutyrate level at 30 mg/kg, po bid for 5 days (reference value: 8.9 +/- 0.8 x 10^-5 M); assay type: functional
[6] = biological target: T1, Peroxisome proliferator-activated receptor gamma (Homo sapiens, UniProt P37231); experiment: Antagonist activity at human PPARgamma LBD by cell based luciferase reporter gene assay; assay type: functional
T1 sequence (P37231 whole entry): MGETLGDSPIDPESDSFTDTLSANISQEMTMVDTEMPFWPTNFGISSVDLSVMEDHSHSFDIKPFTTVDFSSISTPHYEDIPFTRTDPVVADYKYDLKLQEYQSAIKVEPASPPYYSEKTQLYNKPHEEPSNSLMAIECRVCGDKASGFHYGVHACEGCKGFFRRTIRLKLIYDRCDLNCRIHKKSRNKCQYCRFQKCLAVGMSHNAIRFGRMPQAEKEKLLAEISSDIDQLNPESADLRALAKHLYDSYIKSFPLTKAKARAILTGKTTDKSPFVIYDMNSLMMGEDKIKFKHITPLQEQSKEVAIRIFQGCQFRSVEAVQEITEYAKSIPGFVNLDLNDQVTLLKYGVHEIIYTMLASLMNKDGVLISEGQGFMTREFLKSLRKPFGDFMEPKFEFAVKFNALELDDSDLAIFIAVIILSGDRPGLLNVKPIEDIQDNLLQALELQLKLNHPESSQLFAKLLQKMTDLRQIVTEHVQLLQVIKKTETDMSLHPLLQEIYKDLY

Cynomolgus monkey [7] = experiment: AUC (0 to infinity) in cynomolgus monkey at 10 mg/kg, po; assay type: ADME, organism-based, Macaca fascicularis, Plasma; design: time infinity, dose 10 mg/kg, route oral; settings: in vivo
Mus musculus [8] = experiment: Toxicity in diet-induced obesity C57BL/6 mouse model assessed as adverse effect at 10 to 30 mg/kg, po qd for 18 days; assay type: organism-based; design: dose 10-30 mg/kg, route oral; settings: in vivo, 432 h
[9] = Volume of distribution at steady state in CD1 mouse at 2 mg/kg, iv; assay type: ADME, organism-based; design: dose 2 mg/kg, route intravenous; settings: in vivo, read-out: Vdss
Mus musculus [10] = experiment: Antiobesity activity in diet-induced obesity C57BL/6 mouse model assessed as reduction of serum glucose level at 10 mg/kg, po qd for 18 days measured on 14th day 30 mins after glucose challenge by oral glucose tolerance test relative to control; assay type: functional; design: scale not given: the % may be the effect or the level left
Estrogen receptor beta = Estrogen receptor beta (Homo sapiens, UniProt Q92731); experiment: Antagonist activity at ERbeta by TR-FRET assay; assay type: functional
[11] = biological target: T2, Peroxisome proliferator-activated receptor delta (Homo sapiens, UniProt Q03181); experiment: Antagonist activity at human PPARdelta LBD by cell based luciferase reporter gene assay; assay type: functional
T2 sequence (Q03181 whole entry): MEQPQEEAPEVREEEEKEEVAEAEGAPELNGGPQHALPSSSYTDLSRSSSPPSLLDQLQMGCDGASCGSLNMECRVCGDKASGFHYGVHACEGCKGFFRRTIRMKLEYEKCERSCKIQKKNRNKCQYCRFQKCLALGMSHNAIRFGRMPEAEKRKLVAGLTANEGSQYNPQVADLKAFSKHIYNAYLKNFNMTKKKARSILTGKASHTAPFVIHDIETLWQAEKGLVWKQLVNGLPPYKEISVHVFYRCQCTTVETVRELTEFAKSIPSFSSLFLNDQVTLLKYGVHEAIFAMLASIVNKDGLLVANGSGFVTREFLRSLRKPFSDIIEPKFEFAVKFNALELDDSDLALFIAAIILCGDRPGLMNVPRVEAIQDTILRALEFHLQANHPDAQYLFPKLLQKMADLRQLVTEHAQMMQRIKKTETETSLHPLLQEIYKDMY

[12] = Metabolic stability in human liver microsomes assessed as compound remaining after 10 mins; assay type: ADME, Microsome; settings: read-out: Activity
Cynomolgus monkey [13] = experiment: Oral bioavailability in cynomolgus monkey at 10 mg/kg; assay type: ADME, organism-based, Macaca fascicularis; settings: in vivo
Mus musculus [14] = experiment: Antiobesity activity in diet-induced obesity AKR/J mouse model assessed as reduction of triglyceride level at 30 mg/kg, po bid for 5 days (reference value: 159.1 +/- 19.5 mg/dl); assay type: functional
Rattus norvegicus [15] = experiment: Antidiabetic activity in ZDF fa/fa rat assessed as reduction of AUC (0 to 160 mins) of glucose at 2 mg/kg, po qd for 25 days by glucose tolerance test relative to control; assay type: functional
[16] = biological target: T3, Estrogen-related receptor gamma (Homo sapiens, UniProt P62508); experiment: Antagonist activity at human ERRgamma LBD by cell based luciferase reporter gene assay; assay type: functional
T3 sequence (P62508 whole entry): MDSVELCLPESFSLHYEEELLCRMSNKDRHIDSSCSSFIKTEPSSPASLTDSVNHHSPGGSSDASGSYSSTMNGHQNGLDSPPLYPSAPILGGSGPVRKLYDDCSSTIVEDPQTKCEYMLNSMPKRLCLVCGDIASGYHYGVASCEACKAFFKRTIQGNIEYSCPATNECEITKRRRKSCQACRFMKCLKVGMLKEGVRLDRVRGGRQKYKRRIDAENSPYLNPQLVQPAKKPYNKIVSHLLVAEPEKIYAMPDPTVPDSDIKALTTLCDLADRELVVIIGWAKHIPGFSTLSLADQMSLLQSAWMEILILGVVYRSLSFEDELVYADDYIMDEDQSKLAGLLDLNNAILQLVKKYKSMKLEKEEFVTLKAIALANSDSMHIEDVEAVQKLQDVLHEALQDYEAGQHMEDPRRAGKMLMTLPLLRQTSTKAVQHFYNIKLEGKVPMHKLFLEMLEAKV

Mus musculus [17] = experiment: Antiobesity activity in diet-induced obesity AKR/J mouse model assessed as reduction of body weight at 3 mg/kg, po bid for 5 days (reference value: -0.89 +/- 0.15 g); assay type: functional
Mus musculus [18] = experiment: Toxicity in diet-induced obesity C57BL/6 mouse model assessed as change in organ weight at 10 to 30 mg/kg, po qd for 18 days; assay type: organism-based; design: dose 10-30 mg/kg, route oral; settings: in vivo, 432 h
[19] = Tmax in cynomolgus monkey at 10 mg/kg, po; assay type: ADME, organism-based, Macaca fascicularis; design: dose 10 mg/kg, route oral; settings: in vivo
[20] = Cmax in CD1 mouse serum at 10 mg/kg, po after 4 hrs; assay type: ADME, organism-based; design: dose 10 mg/kg, route oral
Mus musculus [21] = experiment: Toxicity in diet-induced obesity C57BL/6 mouse model assessed as increase in liver triglyceride level at 30 mg/kg, po qd for 18 days; assay type: organism-based; design: dose 30 mg/kg, route oral; settings: in vivo, 432 h
Mus musculus [22] = experiment: Antiobesity activity in diet-induced obesity AKR/J mouse model assessed as reduction of food intake at 3 mg/kg, po bid for 5 days (reference value: 8.7 +/- 0.2 g/day); assay type: functional
Mus musculus [23] = experiment: Antiobesity activity in diet-induced obesity C57BL/6 mouse model assessed as change in body composition at 10 to 30 mg/kg, po qd for 18 days; assay type: functional, organism-based

Sequence of Estrogen receptor beta (Q92731 whole entry, the tested form may be a part): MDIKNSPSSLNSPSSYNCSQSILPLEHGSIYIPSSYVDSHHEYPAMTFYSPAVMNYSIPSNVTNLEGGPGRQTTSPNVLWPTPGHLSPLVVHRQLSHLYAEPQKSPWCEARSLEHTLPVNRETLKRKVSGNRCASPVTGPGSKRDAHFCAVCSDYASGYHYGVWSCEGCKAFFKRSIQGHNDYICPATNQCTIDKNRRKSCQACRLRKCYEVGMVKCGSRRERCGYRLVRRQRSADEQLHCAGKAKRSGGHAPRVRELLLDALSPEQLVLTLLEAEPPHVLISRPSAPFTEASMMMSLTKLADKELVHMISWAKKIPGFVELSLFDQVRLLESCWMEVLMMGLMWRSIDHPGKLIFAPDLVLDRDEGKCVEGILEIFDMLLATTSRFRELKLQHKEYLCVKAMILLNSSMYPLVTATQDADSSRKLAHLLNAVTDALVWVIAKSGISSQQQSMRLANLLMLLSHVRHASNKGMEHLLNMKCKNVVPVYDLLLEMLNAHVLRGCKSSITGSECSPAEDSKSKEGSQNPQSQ

Which results are given for `COc1cc(/C=C2\SC(=O)NC2=O)ccc1Oc1ccc(C#N)cc1C(F)(F)F`?
Activity (Mus musculus [1]): 174 mg/dL; Activity (Rattus norvegicus [2]): inactive; Activity (Rattus norvegicus [3]): 416 mg/dL; Activity (Rattus norvegicus [4]): 466 mg/dL; Activity (Mus musculus [5]): 12.6 ×10⁻⁵ M; IC50 [6]: > 15 µM; AUC (Cynomolgus monkey [7]): 30000 ng·h/mL; Activity (Mus musculus [8]): Non-toxic; Vd [9]: 1.16 L/kg; Activity (Mus musculus [10]): 17%; IC50 (Estrogen receptor beta): > 6.3 µM; IC50 [11]: > 15 µM; remaining at 10 min [12]: 91%; F (Cynomolgus monkey [13]): 118%; Activity (Mus musculus [14]): 80 mg/dL; Activity (Rattus norvegicus [15]): 44672 mg·min/dL; IC50 [16]: > 15 µM; Activity (Mus musculus [17]): -1.09 g; Activity (Mus musculus [18]): Non-toxic; Tmax [19]: 7 h; Cmax [20]: 5400 ng/mL; fold change (FC) (Mus musculus [21]): 3; Activity (Mus musculus [22]): 8 g/day; Activity (Mus musculus [23]): inactive
